{"source": "patent US11149277B2", "about": "“Method of producing enriched exosomes” (National Health Research Institutes, priority 2016, dated 2021)", "key": {"NAMECs [1]": {"test_system": "NAMECs", "experiment": "Western blot of exosome markers and proteins in CM-P4 fractions of NAMECs", "format": "cell-based, human", "conditions": "AH23848 0.4, 2, 4 μg/ml; AH6809 0.8, 4, 8 μg/ml; GW 1 μg/ml", "excerpt": "FIG. 2 includes graphs and blots showing analyses of GW-treated NAMEC P4 fractions. CM-P4 GW-treated NAMECs were collected and subjected to (A) NanoSight Nanoparticle Tracking Analysis (NTA) and (B) Dynamic Light Scattering/Zeta Potential Analysis (DLS). […] D: particle diameter. RN: relative number. (C) is a blot showing the amounts of the CD44 stem cell marker and the CD81, CD9, TSG101, Alix, HSP70 and GAPDH exosome markers measured in the indicated CM-P4 fractions and cell lysates. The culture media and cell lysates were collected from the same number of NAMECs treated with vehicle (Crl), GW627368X (GW) or PGE2 (1 μM) for 4 days. (D) is a blot showing the amounts of the GAPDH and CD81 exosome markers and the CD44 stem cell marker measured in the CM-P4 fraction of NAMECs (CD44hi/CD24− stem cells) or CD44lo/CD24+ non-stem cells (HMLE cells) treated with vehicle (Crl) or GW for 2 days. 1×: P4 exosome fraction released by 1×10^6 cells; 2×: P4 exosome fraction released by 2×10^6 cells. […] (E) is a blot showing that the CD44 stem cell marker and GAPDH and CD81 exosome markers were measured in the indicated P4 conditioned medium fractions of NAMECs treated with vehicle (Crl), GW627368X (GW, 1 μg/ml), AH23848 (EP4 antagonist; 0.4, 2, 4 μg/ml), or AH6809 (EP1/2/3 antagonist; 0.8, 4, 8 μg/ml). (F) is a blot showing the HSP70, GAPDH and CD81 exosome markers measured in the indicated CM-P4 of NAMECs, NAMEC-shEP4-1 cells, and NAMEC-shEP4-2 cells treated with vehicle or with doxycycline (Dox, 2 μg/ml) (top panel). Doxyclycline (Dox) induced the production EP4 shRNA in NAMEC-shEP4 cells (bottom panel).\nThe P4 exosome fractions and cell lysates were collected from NAMECs treated with vehicle (Crl), GW627368X (GW), or PGE2 for 4 days. 1×: P4 exosome fraction released by 2.5×10^5 cells; 5×: P4 exosome fraction released by 12.5×10^5 cells. Hg: Hg-integrin β1, Lg: Lg-integrin β1, H: H-integrin α6, L: L-integrin α6, pg: pg-LRP6, g: g-LRP6, Ng: Ng-LRP6.\n(§1) The isolated human mammary epithelial stem cells (NAMECs) were cultured in mammary epithelial cell basal medium (250 ml MCDB-170, 250 ml DMEM-F12, 1.2 g sodium bicarbonate, 2.5 μg EGF, 0.25 mg Hydrocortisone, 2.5 mg insulin, 35 mg BPE) with or without containing EP4 antagonist, i.e., GW627368X (GW) at 1 μg/ml, or AH23848 (AH) at 4 μg/ml, for 4 days. The culture medium was supplied with 0.5 μg/ml of GW or 2 μg/ml of AH23848 at the third day of the culturing period. For the induction of EP4 antagonist-induced exosomes from mouse mammary epithelial cells, cells were cultured in a medium containing 10 μg/ml of GW for 4 days.\nThe culture media were centrifuged at 300 g for 5 min to remove cells (P1), at 2,000 g for 20 min (P2), then at 10,000 g for 30 min (P3) all at 4° C. Dead cells and cell debris were removed at 300 g (P1) and 1200 g (P2). […]"}, "NAMECs [2]": {"test_system": "NAMECs", "experiment": "NanoSight Nanoparticle Tracking Analysis of CM-P4 fractions of NAMEC culture", "format": "cell-based, human", "conditions": "CM-P4 fraction, 4 days; PGE2 1 μM", "excerpt": "FIG. 1 includes a TEM image and a graph. (A) is a TEM image of the P4 medium fraction of NAMECs treated with GW627368X (GW) for 4 days. Scale bar, 1 μm. (B) is a graph showing the number of particles in the CM-P4 fractions of NAMEC culture counted by using NanoSight Nanoparticle Tracking analysis. Top panel: Quantification of exosome release is shown as the ratio of [P4 GAPDH marker level]/[cell number]. Data are means±SEM (n=3). *P≤0.05. **P≤0.005. Bottom table: Quantification of exosome release is shown as the number of particles of the CM-P4 fractions released per cell measured by nanoparticle tracking analysis.\nas §1\nThe culture media were centrifuged at 300 g for 5 min to remove cells (P1), at 2,000 g for 20 min (P2), then at 10,000 g for 30 min (P3) all at 4° C. Dead cells and cell debris were removed at 300 g (P1) and 1200 g (P2). Finally, exosomes (P4) were separated from the supernatant by centrifugation at 110,000 g for 60 min. The P4 exosome pellet was washed once in PBS and then re-suspended in PBS for further application."}, "NAMEC-R cells": {"test_system": "NAMEC-R cells", "experiment": "NTA of EV release from Ras-transformed NAMEC-R cells", "format": "cell-based", "conditions": "CM-P4, 4 days; GW 1 μg/ml; SQ 120 and 240 nM", "experimental": "Vesicles in the P4 fractions were counted using NTA. Data are means±SEM (n=6). ***P≤0.001; (B) The Alix, TSG101, CD63, CD81 and GAPDH exosome markers were measured in the CM-P4 fractions of NAMEC-R cells treated with vehicle (Crl), GW627368X (GW, 1 μg/ml), SQ 29,548 (SQ120/SQ240; 120 nM and 240 nM); (C) The mesenchymal marker N-cadherin, CSC markers and exosome markers were analyzed in the conditioned medium P4 fraction derived from equal numbers of vehicle-treated NAMEC-R cells (Crl), GW-treated NAMEC-R cells (GW, 1 μg/ml GW627368X for 4 days) and SQ 29,548-treated NAMEC-R cells (SQ120/SQ240; 120 nM and 240 nM for 4 days). The longer GAPDH(L) and CD81(L) exposures show the low, but detectable, presence of GAPDH and CD81 in the conditioned medium P4 fraction of vehicle-treated NAMEC-R cells.\nWe further investigated whether EP4 antagonism and TP receptor antagonism (as GW has partial affinity to the human TP receptor) affected EV release from transformed mammary epithelial stem cells. Four-day conditioned media of vehicle, GW-, or SQ (a TP antagonist)-treated Ras-transformed NAMEC mammary stem cells (NAMEC-R) were collected and subjected to differential ultracentrifugation to isolate EVs released by the cells. The numbers of vesicles in CM-P4 fractions were determined using NTA (FIG. 20, A). EP4 antagonism elicited release of ˜5000 vesicles per NAMEC-R cell. […]"}}}
{"compound": "CC(C)Oc1ccc2c(=O)c3cc(C(=O)O)ccc3oc2c1", "note": "[AH6809]", "values": [{"measurement": "exosome release by exosome markers in CM-P4 fractions", "setting": "NAMECs [1]", "result": "not significantly induced"}]}
{"compound": "O=C(O)CC/C=C\\CC[C@H]1[C@H](N2CCOCC2)C(=O)C[C@H]1OCc1ccc(-c2ccccc2)cc1", "note": "[AH23848]", "values": [{"measurement": "exosome release by exosome markers in CM-P4 fractions", "setting": "NAMECs [1]", "result": "induced in a dose-dependent manner"}]}
{"compound": "CCCCC[C@H](O)/C=C/[C@H]1[C@H](O)CC(=O)[C@@H]1C/C=C\\CCCC(=O)O", "note": "[PGE2, prostaglandin E2]", "values": [{"measurement": "concentration of released membrane vesicles", "setting": "NAMECs [2]", "result": "~0.5×10^4 particle/cell"}]}
{"compound": "O=C(O)CCC/C=C\\C[C@@H]1[C@H](CNNC(=O)Nc2ccccc2)[C@H]2CC[C@@H]1O2", "note": "[SQ 29,548]", "values": [{"measurement": "vesicles released per cell", "setting": "NAMEC-R cells", "result": "~1000", "unit": "vesicles per cell"}]}
